Test results reported in patent US20230092890A1, “1, 3, 4-Oxadiazole derivative compounds as histone deacetylase 6 inhibitor, and the pharmaceutical composition comprising the same” (Chong Kun Dang Pharmaceutical Corp., priority 2019, published 2023).

What was measured:
HDAC6 human recombinant = biological target: T1, HDAC6 human recombinant (Homo sapiens, UniProt Q9UBN7); experiment: HDAC enzyme activity inhibition (in vitro), HDAC6 assay; assay type: biochemical; details: samples at 0.1, 1, 10, 100 and 1000 nM; 37° C. 60 minutes; fluorescence Ex 390, Em 460; read-out: HDAC6 IC50
T1 construct: purchased Calbiochem 382180
T1 sequence (Q9UBN7 1-1215): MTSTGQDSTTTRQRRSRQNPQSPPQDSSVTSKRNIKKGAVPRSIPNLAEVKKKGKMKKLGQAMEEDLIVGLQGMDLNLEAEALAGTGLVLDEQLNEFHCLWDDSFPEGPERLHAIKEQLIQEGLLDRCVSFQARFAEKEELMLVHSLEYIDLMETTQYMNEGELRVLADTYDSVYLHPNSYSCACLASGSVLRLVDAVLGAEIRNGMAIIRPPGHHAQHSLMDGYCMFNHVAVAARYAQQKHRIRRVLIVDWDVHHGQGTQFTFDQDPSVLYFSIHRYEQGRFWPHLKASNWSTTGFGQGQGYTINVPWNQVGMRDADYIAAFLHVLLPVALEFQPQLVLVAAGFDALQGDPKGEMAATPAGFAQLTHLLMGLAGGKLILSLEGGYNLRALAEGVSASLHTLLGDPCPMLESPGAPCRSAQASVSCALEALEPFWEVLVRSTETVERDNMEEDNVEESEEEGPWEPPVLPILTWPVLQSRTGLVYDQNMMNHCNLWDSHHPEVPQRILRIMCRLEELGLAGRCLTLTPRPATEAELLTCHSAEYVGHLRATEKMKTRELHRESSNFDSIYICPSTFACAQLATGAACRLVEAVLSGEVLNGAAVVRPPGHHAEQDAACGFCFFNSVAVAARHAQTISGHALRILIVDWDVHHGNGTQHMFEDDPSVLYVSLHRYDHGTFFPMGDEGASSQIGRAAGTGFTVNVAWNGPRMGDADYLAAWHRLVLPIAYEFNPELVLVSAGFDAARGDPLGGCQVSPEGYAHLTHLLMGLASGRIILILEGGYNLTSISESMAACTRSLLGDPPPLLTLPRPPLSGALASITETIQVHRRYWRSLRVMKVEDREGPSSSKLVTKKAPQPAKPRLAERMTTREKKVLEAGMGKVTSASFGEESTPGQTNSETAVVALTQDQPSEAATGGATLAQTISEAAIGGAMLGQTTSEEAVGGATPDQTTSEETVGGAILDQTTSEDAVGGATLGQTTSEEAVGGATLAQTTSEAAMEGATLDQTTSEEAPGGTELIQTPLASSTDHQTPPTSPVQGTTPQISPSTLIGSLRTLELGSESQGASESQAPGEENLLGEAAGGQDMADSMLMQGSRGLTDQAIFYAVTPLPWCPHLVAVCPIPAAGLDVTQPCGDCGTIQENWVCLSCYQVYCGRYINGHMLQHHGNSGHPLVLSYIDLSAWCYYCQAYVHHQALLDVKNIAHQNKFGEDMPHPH
Outline: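 HDAC6 human recombinant enzyme with fluorimetric substrate; […]. Reaction 60 min at 37° C, then developer 30 min at 37° C; fluorescence read at Ex 390/Em 460.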

HDAC1 = biological target: T2, HDAC1 (Homo sapiens, UniProt Q13547); experiment: HDAC enzyme activity inhibition (in vitro), HDAC1 Fluorimetric Drug Discovery Assay Kit; assay type: biochemical; details: samples at 100, 1000 and 10000 nM; 37° C. 60 minutes; fluorescence Ex 390, Em 460; read-out: HDAC1 IC50
T2 construct: purchased Enzolifesciences BML-AK511
T2 sequence (Q13547 whole entry): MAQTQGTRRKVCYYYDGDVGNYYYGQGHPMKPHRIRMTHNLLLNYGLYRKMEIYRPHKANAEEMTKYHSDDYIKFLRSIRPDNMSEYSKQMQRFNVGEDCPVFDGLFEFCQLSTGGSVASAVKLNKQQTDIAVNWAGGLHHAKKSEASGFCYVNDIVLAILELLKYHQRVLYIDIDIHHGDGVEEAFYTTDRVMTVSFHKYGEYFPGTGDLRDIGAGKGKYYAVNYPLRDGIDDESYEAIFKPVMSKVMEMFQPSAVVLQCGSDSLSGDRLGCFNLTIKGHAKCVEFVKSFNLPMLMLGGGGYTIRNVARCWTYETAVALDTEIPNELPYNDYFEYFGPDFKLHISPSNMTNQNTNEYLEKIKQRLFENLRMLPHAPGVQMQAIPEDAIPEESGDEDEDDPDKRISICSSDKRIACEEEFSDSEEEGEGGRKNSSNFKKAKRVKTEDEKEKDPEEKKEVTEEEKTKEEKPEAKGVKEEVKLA
Outline: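 Compounds at 100, 1000, 10000 nM (HDAC1) or 0.1, 1, 10, 100, 1000 nM (HDAC6); 37° C, 60 min; developer, 37° C, 30 min; fluorescence Ex 390/Em 460.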

Row | SMILES | IC50 (HDAC6 human recombinant) | IC50 (HDAC1)
1 | CN1CCN(c2cc3c(cc2F)n(Cc2ccc(-c4nnc(C(F)F)o4)cn2)c(=O)n3-c2cccnc2)CC1 [Compound 328, 1-((5-(5-(difluoromethyl)-1,3,4-oxadiazole-2-yl)pyridine-2-yl)methyl)-6-fluoro-5-(4-methylpiperazine-1-yl)-3-(pyridine-3-yl)-1,3-dihydro-2H-benzo[d]imidazole-2-one] | 85 nM | > 10000 nM
2 | CS(=O)(=O)N1CCC(n2c(=O)n(Cc3ccc(-c4nnc(C(F)F)o4)cn3)c3cc(Cl)ccc32)CC1 [Compound 216, 5-chloro-3-((5-(5-(difluoromethyl)-1,3,4-oxadiazole-2-yl)pyridine-2-yl)methyl)-1-(1-(methylsulfonyl)piperidine-4-yl)-1,3-dihydro-2H-benzo[d]imidazole-2-one] | 18 nM | > 10000 nM
3 | COc1ccc(-c2ccc3c(c2)n(C2CCN(C)CC2)c(=O)n3Cc2ccc(-c3nnc(C(F)F)o3)cc2F)cn1 [Compound 164, 1-(4-(5-(difluoromethyl)-1,3,4-oxadiazole-2-yl)-2-fluorobenzyl)-5-(6-methoxypyridine-3-yl)-3-(1-methylpiperidine-4-yl)-1,3-dihydro-2H-benzo[d]imidazole-2-one] | 61 nM | > 10000 nM
4 | Cc1noc(C)c1-c1ccc2c(c1)n(C1CCN(C)CC1)c(=O)n2Cc1ccc(-c2nnc(C(F)F)o2)cn1 [Compound 210, 1-((5-(5-(difluoromethyl)-1,3,4-oxadiazole-2-yl)pyridine-2-yl)methyl)-5-(3,5-dimethylisoxazole-4-yl)-3-(1-methylpiperidine-4-yl)-1,3-dihydro-2H-benzo[d]imidazole-2-one] | 38 nM | > 10000 nM
5 | O=c1n(Cc2ccc(-c3nnc(C(F)F)o3)cc2F)c2ccc(Cl)cc2n1C1CCN(C2COC2)CC1 [Compound 102, 5-chloro-1-(4-(5-(difluoromethyl)-1,3,4-oxadiazole-2-yl)-2-fluorobenzyl)-3-(1-(oxetan-3-yl)piperidine-4-yl)-1,3-dihydro-2H-benzo[d]imidazole-2-one] | 59 nM | > 10000 nM
6 | CN1CCC(n2c(=O)n(Cc3ccc(-c4nnc(C(F)F)o4)cc3)c3cc(F)ccc32)CC1 [Compound 79, 3-(4-(5-(difluoromethyl)-1,3,4-oxadiazole-2-yl)benzyl)-5-fluoro-1-(1-methylpiperidine-4-yl)-1,3-dihydro-2H-benzo[d]imidazole-2-one] | 66 nM | > 10000 nM
7 | CC(C)(C)OC(=O)N1CCN(c2ccc(-c3cc4oc(=O)n(Cc5ccc(-c6nnc(C(F)F)o6)cn5)c4cc3F)cn2)CC1 [Compound 344, tert-butyl 4-(5-(3-((5-(5-(difluoromethyl)-1,3,4-oxadiazole-2-yl)pyridine-2-yl)methyl)-5-fluoro-2-oxo-2,3-dihydrobenzo[d]oxazole-6-yl)pyridine-2-yl)piperazine-1-carboxylate] | 671 nM | > 10000 nM
8 | CC(=O)N1CCC(n2c(=O)n(Cc3ccc(-c4nnc(C(F)F)o4)cn3)c3ccc(Cl)cc32)CC1 [Compound 181, 3-(1-acetylpiperidine-4-yl)-5-chloro-1-((5-(5-(difluoromethyl)-1,3,4-oxadiazole-2-yl)pyridine-2-yl)methyl)-1,3-dihydro-2H-benzo[d]imidazole-2-one] | 68 nM | > 10000 nM
9 | O=c1n(Cc2ccc(-c3nnc(C(F)F)o3)cn2)c2cc(F)c(-c3cccc4[nH]ccc34)cc2n1CC1CCN(C2COC2)CC1 [Compound 289, 1-((5-(5-(difluoromethyl)-1,3,4-oxadiazole-2-yl)pyridine-2-yl)methyl)-6-fluoro-5-(1H-indole-4-yl)-3-((1-(oxetan-3-yl)piperidine-4-yl)methyl)-1,3-dihydro-2H-benzo[d]imidazole-2-one] | 4 nM | > 10000 nM

More lines, now with the values ahead:

Row | IC50 (HDAC6 human recombinant) | IC50 (HDAC1) | SMILES
10 | 15 nM | > 10000 nM | CC(C)N1CCC(n2c(=O)n(Cc3ccc(-c4nnc(C(F)F)o4)cn3)c3cc(Cl)ccc32)CC1 [Compound 214, 5-chloro-3-((5-(5-(difluoromethyl)-1,3,4-oxadiazole-2-yl)pyridine-2-yl)methyl)-1-(1-isopropylpiperidine-4-yl)-1,3-dihydro-2H-benzo[d]imidazole-2-one]
11 | 171 nM | > 10000 nM | CN1CCC(N2Cc3ccccc3N(Cc3ccc(-c4nnc(C(F)F)o4)cn3)C2=O)CC1 [Compound 8, 1-((5-(5-(difluoromethyl)-1,3,4-oxadiazole-2-yl)pyridine-2-yl)methyl)-3-(1-methylpiperidine-4-yl)-3,4-dihydroquinazoline-2(1H)-one]
12 | 9 nM | > 10000 nM | O=c1n(Cc2ccc(-c3nnc(C(F)F)o3)cn2)c2cc(F)c(-c3cccnc3)cc2n1[C@@H]1CCN(C2COC2)C1 [Compound 286, (R)-1-((5-(5-(difluoromethyl)-1,3,4-oxadiazole-2-yl)pyridine-2-yl)methyl)-6-fluoro-3-(1-(oxetan-3-yl)pyrrolidine-3-yl)-5-(pyridine-3-yl)-1,3-dihydro-2H-benzo[d]imidazole-2-one]
13 | 42 nM | > 10000 nM | CC(=O)N1CCC(n2c(=O)n(Cc3ccc(-c4nnc(C(F)F)o4)cn3)c3cc(C(F)(F)F)ccc32)CC1 [Compound 176, 1-(1-acetylpiperidine-4-yl)-3-((5-(5-(difluoromethyl)-1,3,4-oxadiazole-2-yl)pyridine-2-yl)methyl)-5-(trifluoromethyl)-1,3-dihydro-2H-benzo[d]imidazole-2-one]
14 | 193 nM | > 10000 nM | CC(C)N1CCC(n2c(=O)n(Cc3ccc(-c4nnc(C(F)F)o4)cc3F)c3ccccc32)CC1 [Compound 15, 1-(4-(5-(difluoromethyl)-1,3,4-oxadiazole-2-yl)-2-fluorobenzyl)-3-(1-isopropylpiperidine-4-yl)-1,3-dihydro-2H-benzo[d]imidazole-2-one]
15 | 39 nM | > 10000 nM | CN1CCC(n2c(=O)n(Cc3ccc(-c4nnc(C(F)F)o4)cc3F)c3ccc(-c4ccoc4)cc32)CC1 [Compound 162, 1-(4-(5-(difluoromethyl)-1,3,4-oxadiazole-2-yl)-2-fluorobenzyl)-5-(furan-3-yl)-3-(1-methylpiperidine-4-yl)-1,3-dihydro-2H-benzo[d]imidazole-2-one]
16 | 20 nM | > 10000 nM | CN1CC[C@H](n2c(=O)n(Cc3ccc(-c4nnc(C(F)F)o4)cn3)c3cc(F)c(-c4cccnc4)cc32)C1 [Compound 268, (S)-1-((5-(5-(difluoromethyl)-1,3,4-oxadiazole-2-yl)pyridine-2-yl)methyl)-6-fluoro-3-(1-methylpyrrolidine-3-yl)-5-(pyridine-3-yl)-1,3-dihydro-2H-benzo[d]imidazole-2-one]
17 | 44 nM | > 10000 nM | O=C(c1cncnc1)N1CCC(n2c(=O)n(Cc3ccc(-c4nnc(C(F)F)o4)cn3)c3cc(F)ccc32)CC1 [Compound 64, 3-((5-(5-(difluoromethyl)-1,3,4-oxadiazole-2-yl)pyridine-2-yl)methyl)-5-fluoro-1-(1-(pyrimidine-5-carbonyl)piperidine-4-yl)-1,3-dihydro-2H-benzo[d]imidazole-2-one]
18 | 16 nM | > 10000 nM | CN1CCC[C@@H](n2c(=O)n(Cc3ccc(-c4nnc(C(F)F)o4)cn3)c3cc(F)c(-c4ccncc4)cc32)C1 [Compound 275, (R)-1-((5-(5-(difluoromethyl)-1,3,4-oxadiazole-2-yl)pyridine-2-yl)methyl)-6-fluoro-3-(1-methylpiperidine-3-yl)-5-(pyridine-4-yl)-1,3-dihydro-2H-benzo[d]imidazole-2-one]
